Test results: patent US20240262795A1, “PYRAZINE COMPOUNDS AS INHIBITORS OF FLT3” (Biomea Fusion, Inc., priority 2021, published 2024)

Assays:
K-562 = assay: Proliferation inhibition, CellTiter-Glo, K-562; assay type: cell-based, human; settings: Homo sapiens, K562, 96 h; K-562 cells, IC50 (4 days), CellTiter-Glo; read-out: K-562 IC50
Procedure, shortened: (§1)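 About 10,000 cells per well in RPMI-1640 with 10% FBS. Compounds added 2 h after seeding at eight concentrations in duplicate (0.2% DMSO as 100% proliferation), then incubated ~96 h at 37° C, 5% CO2. ATP measured by CellTiter-Glo luminescence; IC50 from four-parameter logistic fit.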

MOLM-13 = assay: Proliferation inhibition, CellTiter-Glo, MOLM-13; assay type: cell-based, human; settings: Homo sapiens, 96 h; MOLM-13 cells, IC50 (4 days), CellTiter-Glo; read-out: MOLM-13 IC50
Procedure, shortened: as §1

MV-4-11 = assay: Proliferation inhibition, CellTiter-Glo, MV-4-11; assay type: cell-based, human; settings: Homo sapiens, MV4-11, 96 h; MV-4:11 cells, IC50 (4 days), CellTiter-Glo; read-out: MV-4:11 IC50
Procedure, shortened: as §1

FLT3-ITD = target: T1, FLT3-ITD (Homo sapiens, UniProt P36888, DUP595-601); assay: FLT3-ITD Lance Ultra TR-FRET kinase assay; assay type: biochemical
T1 construct: purchased Signalchem F-12-12CG-10
T1 sequence (P36888 with tags, fused parts or gaps DUP595-601 limits assumed): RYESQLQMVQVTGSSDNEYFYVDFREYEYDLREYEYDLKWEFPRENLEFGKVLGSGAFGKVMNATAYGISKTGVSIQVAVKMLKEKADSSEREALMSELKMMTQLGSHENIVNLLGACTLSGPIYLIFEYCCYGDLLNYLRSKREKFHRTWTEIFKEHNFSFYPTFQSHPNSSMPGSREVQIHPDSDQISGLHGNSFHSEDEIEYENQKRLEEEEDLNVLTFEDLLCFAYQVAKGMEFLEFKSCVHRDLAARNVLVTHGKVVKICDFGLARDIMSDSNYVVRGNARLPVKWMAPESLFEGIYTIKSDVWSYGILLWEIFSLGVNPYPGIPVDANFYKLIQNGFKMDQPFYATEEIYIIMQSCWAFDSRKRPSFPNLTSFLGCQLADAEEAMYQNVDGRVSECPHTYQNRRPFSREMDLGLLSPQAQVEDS
Procedure, shortened: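 Lance Ultra TR-FRET with 50 nM ULight-JAK-1 (Tyr1023) peptide, Eu-anti-phosphotyrosine (PT66) detection, in HEPES pH 7.5 buffer at 23° C, 30 min enzyme/compound preincubation. WT: 0.5 nM enzyme, 100 μM ATP, 30 min; ITD: 0.0625 nM, 50 μM ATP, 60 min. IC50 by four-parameter fit of 11-point 3× dilutions.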

Row | IC50 (K-562) [nM] | IC50 (MOLM-13) [nM] | IC50 (MV-4-11) [nM] | IC50 (FLT3-ITD) [nM] | Structure (SMILES)
1 | > 500 | < 1 | 1 to 10 | 0.201 to 0.5 | CCc1nc(C(N)=O)c(Nc2cccc([C@@H](C)CNC(=O)CN(C)C(=O)/C=C/CN3CCC3)c2)nc1C1CC1 [Compound 506, (R,E)-3-((3-(1-(2-(4-(azetidin-1-yl)-N-methylbut-2-enamido)acetamido)propan-2-yl)phenyl)amino)-5-cyclopropyl-6-ethylpyrazine-2-carboxamide]
2 | > 500 | 1 to 10 | < 1 | 0.501 to 1 | Cc1nc(C(N)=O)c(Nc2cccc(CCNC(=O)[C@H](C)N(C)C(=O)/C=C/CN(C)C)c2)nc1N(C)C(C)C [Compound 232, (S, E)-3-((3-(2-(2-(4-(dimethylamino)-N-methylbut-2-enamido)propanamido)ethyl)phenyl)amino)-5-(isopropyl (methyl)amino)-6-methylpyrazine-2-carboxamide]
3 | > 500 | < 1 | < 1 | 0.101 to 0.2 | CCc1nc(C(N)=O)c(Nc2cccc(CCNC(=O)CN(C)C(=O)/C=C/CN3CCC3)c2)nc1N(C)CC [Compound 516A, (E)-3-((3-(2-(2-(4-(azetidin-1-yl)-N-methylbut-2-enamido)acetamido)ethyl)phenyl)amino)-6-ethyl-5-(ethyl(methyl)amino) pyrazine-2-carboxamide]
4 | > 500 | < 1 | < 1 | 0.101 to 0.2 | CCc1nc(C(N)=O)c(Nc2cccc(CCNC(=O)[C@H](C)N(C)C(=O)/C=C/CN(C)C)c2)nc1N(C)C(C)C [Compound 204, (S,E)-3-((3-(2-(2-(4-(dimethylamino)-N-methylbut-2-enamido)propanamido)ethyl)phenyl)amino)-6-ethyl-5-(isopropyl(methyl)amino)pyrazine-2-carboxamide]
5 | > 500 | < 1 | < 1 |  | CCc1nc(C(N)=O)c(Nc2cccc([C@@H](C)CNC(=O)CN(C)C(=O)/C=C/CN(C)C)c2)nc1C1CC1 [Compound 504, (R,E)-5-cyclopropyl-3-((3-(1-(2-(4-(dimethylamino)-N-methylbut-2-enamido)acetamido)propan-2-yl)phenyl)amino)-6-ethylpyrazine-2-carboxamide]
6 | > 500 | < 1 | < 1 |  | CCc1nc(C(N)=O)c(Nc2cccc(CCNC(=O)CN(C)C(=O)/C=C/CN(C)C)c2)nc1C1CC1 [Compound 219, (E)-5-cyclopropyl-3-((3-(2-(2-(4-(dimethylamino)-N-methylbut-2-enamido)acetamido)ethyl)phenyl)amino)-6-ethylpyrazine-2-carboxamide]
7 | > 500 | < 1 | 1 to 10 | 0.201 to 0.5 | CCCc1nc(Nc2cccc([C@@H](C)CNC(=O)CN(C)C(=O)/C=C/CN3CCC3)c2)c(C(N)=O)nc1CC [Compound 507, (R,E)-3-((3-(1-(2-(4-(azetidin-1-yl)-N-methylbut-2-enamido)acetamido)propan-2-yl)phenyl)amino)-6-ethyl-5-propylpyrazine-2-carboxamide]
8 | > 500 | < 1 | < 1 | 0.101 to 0.2 | CCc1nc(C(N)=O)c(Nc2cccc([C@@H](C)CNC(=O)CN(C)C(=O)/C=C/CN3CCC3)c2)nc1N(C)CC [Compound 518, (R,E)-3-((3-(1-(2-(4-(azetidin-1-yl)-N-methylbut-2-enamido)acetamido)propan-2-yl)phenyl)amino)-6-ethyl-5-(ethyl(methyl)amino)pyrazine-2-carboxamide]

The remaining lines, values behind:

Row | Structure (SMILES) | IC50 (K-562) [nM] | IC50 (MOLM-13) [nM] | IC50 (MV-4-11) [nM] | IC50 (FLT3-ITD) [nM]
9 | CCc1nc(Nc2cccc([C@@H](C)CNC(=O)CN(C)C(=O)/C=C/CN3CCC3)c2)c(C(N)=O)nc1CC [Compound 508, (R, E)-3-((3-(1-(2-(4-(azetidin-1-yl)-N-methylbut-2-enamido)acetamido)propan-2-yl)phenyl)amino)-5,6-diethylpyrazine-2-carboxamide] | > 500 | > 500 | > 500 | 0.501 to 1
10 | CCOc1nc(Nc2cccc(CCNC(=O)CN(C)C(=O)/C=C/CN3CCC3)c2)c(C(N)=O)nc1CC [Compound 602, (E)-3-((3-(2-(2-(4-(azetidin-1-yl)-N-methylbut-2-enamido)acetamido)ethyl)phenyl)amino)-5-ethoxy-6-ethylpyrazine-2-carboxamide] | > 500 | 1 to 10 | < 1 | 0.201 to 0.5
11 | CCc1nc(C(N)=O)c(Nc2cccc(CCNC(=O)CN(C)C(=O)/C=C/CN(C)C)c2)nc1N(C)CC [Compound 252, (E)-3-((3-(2-(2-(4-(dimethylamino)-N-methylbut-2-enamido)acetamido)ethyl)phenyl)amino)-6-ethyl-5-(ethyl (methyl)amino) pyrazine-2-carboxamide] | > 500 | < 1 | < 1 | 0.101 to 0.2
12 | CCc1nc(C(N)=O)c(Nc2cc(F)cc(CCNC(=O)CN(C)C(=O)/C=C/CN3CCC3)c2)nc1C1CC1 [Compound 516, (E)-3-((3-(2-(2-(4-(azetidin-1-yl)-N-methylbut-2-enamido)acetamido)ethyl)-5-fluorophenyl)amino)-5-cyclopropyl-6-ethylpyrazine-2-carboxamide] | > 500 | 1 to 10 | 1 to 10 | 0.101 to 0.2
13 | CCc1nc(C(N)=O)c(Nc2ccnc(CCNC(=O)[C@H](C)N(C)C(=O)/C=C/CN(C)C)c2)nc1N(C)C(C)C [Compound 605, (S, E)-3-((2-(2-(2-(4-(dimethylamino)-N-methylbut-2-enamido)propanamido)ethyl)pyridin-4-yl)amino)-6-ethyl-5-(isopropyl (methyl)amino) pyrazine-2-carboxamide] | > 500 | < 1 | < 1 | 0.201 to 0.5
14 | CCc1nc(C(N)=O)c(Nc2ccnc(CCNC(=O)[C@H](C)N(C)C(=O)/C=C/CN(C)C)c2)nc1C1CC1 [Compound 310, (S,E)-5-cyclopropyl-3-((2-(2-(2-(4-(dimethylamino)-N-methylbut-2-enamido)propanamido)ethyl)pyridin-4-yl)amino)-6-ethylpyrazine-2-carboxamide] | > 500 | 1 to 10 | < 1 | 0.501 to 1
15 | CCc1nc(C(N)=O)c(Nc2cccc(CCNC(=O)[C@H](C)N(C)C(=O)/C=C/CNC)c2)nc1N(C)C(C)C [Compound 307, (S,E)-6-ethyl-5-(isopropyl(methyl)amino)-3-((3-(2-(2-(N-methyl-4-(methylamino)but-2-enamido)propanamido)ethyl)phenyl)amino)pyrazine-2-carboxamide] |  | < 1 | < 1 | 0.201 to 0.5
16 | CCc1nc(C(N)=O)c(Nc2ccc(N3CCC(N4CCN(C)CC4)CC3)c(OC)c2)nc1NC1CCOCC1 [Gilteritinib, gilteritinib, reference compound] | 100 to 500 | 1 to 10 | 1 to 10 | 
17 | CCc1nc(C(N)=O)c(Nc2cccc(CCNC(=O)[C@H](C)N(C)C(=O)/C=C/CN(C)C)c2)nc1NC(C)C [Compound 205, (S,E)-3-((3-(2-(2-(4-(dimethylamino)-N-methylbut-2-enamido)propanamido)ethyl)phenyl)amino)-6-ethyl-5-(isopropylamino)pyrazine-2-carboxamide] | > 500 | < 1 | < 1 | 0.101 to 0.2
18 | CCc1nc(C(N)=O)c(Nc2cccc(CCNC(=O)CN(C)C(=O)/C=C/CN3CCC3)c2)nc1OC(C)C [Compound 603, (E)-3-((3-(2-(2-(4-(azetidin-1-yl)-N-methylbut-2-enamido)acetamido)ethyl)phenyl)amino)-6-ethyl-5-isopropoxypyrazine-2-carboxamide] | > 500 | 1 to 10 | < 1 | 0.201 to 0.5
19 | Cc1nc(C(N)=O)c(Nc2cccc(CCNC(=O)CN(C)C(=O)/C=C/CN(C)C)c2)nc1N(C)C(C)C [Compound 250, (E)-3-((3-(2-(2-(4-(dimethylamino)-N-methylbut-2-enamido)acetamido)ethyl)phenyl)amino)-5-(isopropyl(methyl)amino)-6-methylpyrazine-2-carboxamide] | > 500 | 1 to 10 | < 1 | 0.201 to 0.5
